The values that follow come from US20240002429A1, “PRODRUG OF 5a-HYDROXY-6ß-[2-(1H-IMIDAZOL-4-YL)ETHYLAMINO]CHOLESTAN-3ß-OL AND PHARMACEUTICAL COMPOSITIONS COMPRISING SAME FOR USE IN THE TREATMENT OF CANCER” (priority 2020, published 2024).

A short description of data set [1]: Pharmacokinetic study of DX117 (LC/MS in plasma). Type of data set: in vivo. The settings on record: rat, 50 mg/kg, administered compound assayed. The text has this:
(§1) The following study is a determination by LC/MS in plasma of the various molecules over 3 days (11 measurement points at the end). The graphs are always presented in comparison with DX101, which is the reference. […]

Data set [2] deals with MCF-7 mammary tumor cells. Nature of the data set: Morphology of MCF-7 cells under inverted microscope. The class given is cell-based. How it is done:
A cell viability test was carried out on MCF-7 mammary tumor cells (Michigan Cancer Foundation-7) […] (ER(+) cells) containing receptors for the hormone estrogen.
The MCF-7 cells are in a cell culture medium identical to example 14 and are seeded in 12-well plates at 50000 cells per well for 24 h. 24 hours after seeding, the cells are treated with the solvate vehicle comprising water and ethanol with an ethanol ratio 1‰ and comprising 5α-hydroxy-6β-[2-(1H-imidazol-4-yl)-ethylamino]-cholestan-3β-yl propionate or 5α-hydroxy-6β-[2-(1H-imidazol-4-yl)-ethylamino]-cholestan-3β-ol at 1, 2.5 or 5 μM. The cells are observed in an inverted microscope and photographed with the microscope camera at 24 h and 48 h. The morphological changes of the cells at 1 μM are very slight.
In this test: • The white vesicles reflect cell death by cytotoxic autophagy; • The cells that become rounded reflect cell death; • The cells that become detached reflect a cytotoxic effect; • The adherent cells reflect cell survival; • The supernatant cells reflect cell death; and • The refractive cells reflect cell death.

The nature of data set [3]: Pharmacokinetic study of DX121 (LC/MS in plasma). The class given is in vivo. The settings on record: rat, oral 50 mg/kg, administered compound assayed.
From the text: as §1

Data set [4] has as its system 4T1 cells. Nature of the data set: Cytotoxicity on 4T1 cells, LDH. The class given is cell-based, murine. Particulars: Mus musculus, 4T1, LDH, 48 h. How it is done: (§2) The cellular viability tests were carried out on murine mammary tumor 4T1 cells characterized as negative triples (HER2−, ER−, PR−).
(§3) For this experiment, a cell culture medium was prepared. The culture medium consists of Dulbecco's Modified Eagle Medium (DMEM, marketed by Westburg under the reference LO BE12-604F), comprising 4.5 g/L glucose with L-glutamine, to which 10% of fetal calf serum (FCS) and 50 U/mL of penicillin/streptomycin are added. The 4T1 cells are introduced into this culture medium.
(§4) 96-well plates were seeded with 2000 4T1 cells per well. After 72 hours (h) of culture in normal conditions, i.e. in an incubator at a temperature of 37° C. at 5% CO2, the 4T1 cells are treated for 48 h with DX101, DX107, DX113, DX117, DX119, DX121 or DX131 at 100 nM, 1 μM, 2.5 μM and 10 μM. A control condition (CTL) is also carried out in parallel using the protocol described above but without treatment with the molecules DX101, DX107, DX113, DX117, DX119, DX121, DX131 or DX133.
For the second method, the percentage viability is determined using assay of the activity of the enzyme LDH (lactate dehydrogenase) in the cellular supernatants using the kit non radioactive cytotoxicity assay kit (Promega). LDH is an enzyme released in the supernatant of dead cells. The higher the LDH activity in the supernatant, the greater is the cell death. In this enzyme test, the LDH released converts a violet tetrazolium salt to formazan, of red color, absorbing at 490 nm. The intensity of the red color is proportional to the number of dead cells. After 48 h of treatment, the supernatants are transferred to a new 96-well plate and are incubated for 30 minutes in the presence of the substrate mix at room temperature. The reaction is stopped using the stop buffer and the absorbance is determined at 490 nm. The percentage cell death is determined here using a control 100% of maximum activity of LDH (carried out with untreated cells incubated in the presence of the lysis solution for 45 minutes at 37° C. just before adding the substrate mix), and the cellular viability in each well is then deduced from this percentage. IC50 is then determined as explained in the preceding paragraph.

Data set [5] concerns 4T1 cells. Put plainly: Cytotoxicity on 4T1 cells, MTT. The class given is cell-based, murine. The settings on record: Mus musculus, 4T1, MTT, 48 h. How it is done: as §2, §3, §4
Cellular viability is measured by three different methods. For the first method, MTT labeling is carried out at 48 hours. This test is based on the use of the tetrazolium salt MTT (3-(4,5-dimethylthiazol-2-yl)-2,5-diphenyltetrazolium bromide). The tetrazolium is reduced by mitochondrial succinate dehydrogenase of active living cells, to formazan, a precipitate of a violet color. The quantity of precipitate formed is proportional to the quantity of living cells but also to the metabolic activity of each cell. […] After 48 hours, the medium is aspirated, and the cells are incubated with MTT (0.5 mg/ml in culture medium) for about 3 hours. The MTT solution is aspirated and the violet crystals are dissolved in dimethylsulfoxide (DMSO). The OD (optical density) is measured at 550 nm. The percentage viability is then determined in each well relative to the CTL and the IC50 (concentration for which there are still 50% of living cells) is determined for each molecule with Prism software using the nonlinear regression straight line (log(inhibitor) vs. Response).

Setting [6] is: log of IC50 in μM, read-out: Mean LogIC50 (±SEM) (converted).

For the compound `CC(C)CCC[C@@H](C)[C@H]1CC[C@H]2[C@@H]3C[C@@H](NCCc4c[nH]cn4)[C@@]4(O)C[C@@H](O)CC[C@]4(C)[C@H]3CC[C@]12C` [DX101, 5α-hydroxy-6β-[2-(1H-imidazol-4-yl)-ethylamino]-cholestan-3β-ol, reference compound], the Concentration max in data set [1] and in data set [3] was 150 nM throughout. The Area under curve in data set [1] (0-72 h) and in data set [3] (0-72 h) was 3019 in each case. Further, in data set [2] (MCF-7, 1 μM, 24 h), the “Morphological observations at 24 hours” value is given as “Some white vesicles”. Moreover, in data set [2] (MCF-7, 5 μM, 48 h), the “Observations at 48 hours” value is given as “All the cells are supernatant”.
On to `CCC(=O)O[C@H]1CC[C@]2(C)[C@H]3CC[C@]4(C)[C@@H]([C@H](C)CCCC(C)C)CC[C@H]4[C@@H]3C[C@@H](NCCc3c[nH]cn3)[C@@]2(O)C1` [DX107, 5α-hydroxy-6β-[2-(1H-imidazol-4-yl)ethylamino]cholestan-3β-yl propionate], for which the IC50 in data set [4] (setting [6]) was 3.31 µM; in data set [4] (read-out: IC50) it was 3.29 µM; in data set [5] (setting [6]), 3.8 µM; in data set [5] (read-out: IC50), 3.79 µM.
